The source of these data is patent publication US11667649B2, “Heteroaromatic macrocyclic ether chemotherapeutic agents” (Nuvalent, Inc., priority 2020, dated 2023).

The assay has as its system TPM3-NTRK1-wt IC50 / primary target (e.g. CD74-ROS1-wt) IC50, Ba/F3 cells. In words: Cell assay TRKA selectivity (TRKA potency divided by primary target potency). The assay is classed as cell-based. The note with it: for TPM3-NTRK1-wt/CD74-ROS1-G2032R: TRKA selectivity ratio: TPM3-NTRK1-wt IC50 / CD74-ROS1-G2032R IC50, Ba/F3 cells; for TPM3-NTRK1-wt/CD74-ROS1-wt: TRKA selectivity ratio: TPM3-NTRK1-wt IC50 / CD74-ROS1-wt IC50, Ba/F3 cells; for TPM3-NTRK1-wt/EML4-ALK-L1196M-G1202R: TRKA selectivity ratio: TPM3-NTRK1-wt IC50 / EML4-ALK-L1196M-G1202R IC50, Ba/F3 cells; for TPM3-NTRK1-wt/EML4-ALK-wt: TRKA selectivity ratio: TPM3-NTRK1-wt IC50 / EML4-ALK-wt IC50, Ba/F3 cells. In a few lines:
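Ratio of TRKA to primary-target cellular IC50 (e.g. TPM3-NTRK1-wt/CD74-ROS1-wt), grouped into bins A >30, B >10, C ≥1, D <1. Each IC50 came from engineered Ba/F3 fusion lines grown without IL-3, dosed for 72 h and read as CellTiter-Glo luminescence, with a four-parameter logistic fit.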

Regarding `CCn1ncc2c1-c1cnc(N)c(c1)OC(C)c1cc(F)ccc1-c1cnccc1C2` (stereo not shown) [Example 35, 3-ethyl-17-fluoro-20-methyl-21-oxa-3,4,11,24-tetraazapentacyclo[20.3.1.0^2,^6.0^8,^13.0^14,^19]hexacosa-1(25),2(6),4,8(13),9,11,14,16,18,22(26),23-undecaen-23-amine], the TPM3-NTRK1-wt/CD74-ROS1-G2032R entry was “A (bin A for very high selectivity, ratio>30-fold)”; the TPM3-NTRK1-wt/CD74-ROS1-wt entry is on record as “A (bin A for very high selectivity, ratio>30-fold)”; the TPM3-NTRK1-wt/EML4-ALK-L1196M-G1202R entry is “C (bin C for moderate selectivity, ratio≥1)”; the TPM3-NTRK1-wt/EML4-ALK-wt result was “A (bin A for very high selectivity, ratio>30-fold)”.
Regarding `CCn1ncc2c1-c1cnc(N)c(c1)OC(C)c1cc(F)ccc1-c1ccncc1C2` (stereo not shown) [Example 36, 3-ethyl-17-fluoro-20-methyl-21-oxa-3,4,10,24-tetraazapentacyclo[20.3.1.0^2,^6.0^8,^13.0^14,^19]hexacosa-1(25),2(6),4,8(13),9,11,14,16,18,22(26),23-undecaen-23-amine], the TPM3-NTRK1-wt/CD74-ROS1-G2032R result is listed as “A (bin A for very high selectivity, ratio>30-fold)”; the TPM3-NTRK1-wt/CD74-ROS1-wt result is reported as “A (bin A for very high selectivity, ratio>30-fold)”; the TPM3-NTRK1-wt/EML4-ALK-L1196M-G1202R result was “C (bin C for moderate selectivity, ratio≥1)”; the TPM3-NTRK1-wt/EML4-ALK-wt result is “A (bin A for very high selectivity, ratio>30-fold)”.
Regarding `CC1Oc2cc(cnc2N)-c2c(cnn2C2CCC2)Cn2ccnc2-c2ccc(F)cc21` (stereo not shown) [Example 37, 3-cyclobutyl-16-fluoro-19-methyl-20-oxa-3,4,8,11,23-pentaazapentacyclo[19.3.1.0^2,^6.0^8,^12.0^13,^18]pentacosa-1(24),2(6),4,9,11,13,15,17,21(25),22-decaen-22-amine], the TPM3-NTRK1-wt/CD74-ROS1-G2032R entry was “A (bin A for very high selectivity, ratio>30-fold)”; the TPM3-NTRK1-wt/CD74-ROS1-wt entry is listed as “A (bin A for very high selectivity, ratio>30-fold)”; the TPM3-NTRK1-wt/EML4-ALK-L1196M-G1202R entry is “A (bin A for very high selectivity, ratio>30-fold)”; the TPM3-NTRK1-wt/EML4-ALK-wt result is on record as “A (bin A for very high selectivity, ratio>30-fold)”.
Consider `CCn1ncc2c1-c1cnc(N)c(c1)OC(C)c1cc(F)ccc1-n1cncc1C2` (stereo not shown) [Example 38, 3-ethyl-16-fluoro-19-methyl-20-oxa-3,4,10,12,23-pentaazapentacyclo[19.3.1.0^2,^6.0^8,^12.0^13,^18]pentacosa-1(24),2(6),4,8,10,13,15,17,21(25),22-decaen-22-amine], for which the TPM3-NTRK1-wt/CD74-ROS1-G2032R entry is given as “A (bin A for very high selectivity, ratio>30-fold)”; the TPM3-NTRK1-wt/CD74-ROS1-wt entry was “A (bin A for very high selectivity, ratio>30-fold)”; the TPM3-NTRK1-wt/EML4-ALK-L1196M-G1202R entry is on record as “C (bin C for moderate selectivity, ratio≥1)”; the TPM3-NTRK1-wt/EML4-ALK-wt entry is listed as “B (bin B for high selectivity, ratio>10-fold)”.
Turning to `CC1Oc2cc(cnc2N)-c2c(cnn2CCF)Cn2ccnc2-c2ccc(F)cc21` (stereo not shown) [Example 39, 16-fluoro-3-(2-fluoroethyl)-19-methyl-20-oxa-3,4,8,11,23-pentaazapentacyclo[19.3.1.0^2,^6.0^8,^12.0^13,^18]pentacosa-1(24),2(6),4,9,11,13,15,17,21(25),22-decaen-22-amine], the TPM3-NTRK1-wt/CD74-ROS1-G2032R result is “A (bin A for very high selectivity, ratio>30-fold)”; the TPM3-NTRK1-wt/CD74-ROS1-wt result is recorded as “A (bin A for very high selectivity, ratio>30-fold)”; the TPM3-NTRK1-wt/EML4-ALK-L1196M-G1202R entry was “C (bin C for moderate selectivity, ratio≥1)”; the TPM3-NTRK1-wt/EML4-ALK-wt entry was “A (bin A for very high selectivity, ratio>30-fold)”.
`CC1Oc2cc(cnc2N)-c2c(cnn2CC(F)F)Cn2ccnc2-c2ccc(F)cc21` (stereo not shown) [Example 40, 3-(2,2-difluoroethyl)-16-fluoro-19-methyl-20-oxa-3,4,8,11,23-pentaazapentacyclo[19.3.1.0^2,^6.0^8,^12.0^13,^18]pentacosa-1(24),2(6),4,9,11,13,15,17,21(25),22-decaen-22-amine]: the TPM3-NTRK1-wt/CD74-ROS1-G2032R entry is “A (bin A for very high selectivity, ratio>30-fold)”; the TPM3-NTRK1-wt/CD74-ROS1-wt result was “A (bin A for very high selectivity, ratio>30-fold)”; the TPM3-NTRK1-wt/EML4-ALK-L1196M-G1202R result is recorded as “A (bin A for very high selectivity, ratio>30-fold)”; the TPM3-NTRK1-wt/EML4-ALK-wt result is listed as “A (bin A for very high selectivity, ratio>30-fold)”.
Consider `CCn1ncc2c1-c1cnc(N)c(c1)OCc1cc(F)ccc1-n1nccc1C2` [Example 41, 3-ethyl-16-fluoro-20-oxa-3,4,11,12,23-pentaazapentacyclo[19.3.1.0^2,^6.0^8,^12.0^13,^18]pentacosa-1(24),2(6),4,8,10,13,15,17,21(25),22-decaen-22-amine], for which the TPM3-NTRK1-wt/CD74-ROS1-G2032R result is “A (bin A for very high selectivity, ratio>30-fold)”; the TPM3-NTRK1-wt/CD74-ROS1-wt result is listed as “A (bin A for very high selectivity, ratio>30-fold)”; the TPM3-NTRK1-wt/EML4-ALK-L1196M-G1202R result is “B (bin B for high selectivity, ratio>10-fold)”; the TPM3-NTRK1-wt/EML4-ALK-wt entry is “A (bin A for very high selectivity, ratio>30-fold)”.
Take `CCn1ncc2c1-c1cnc(N)c(c1)OC(C)c1cc(F)ccc1-c1ncncc1C2` (stereo not shown) [Example 42, 3-ethyl-17-fluoro-20-methyl-21-oxa-3,4,10,12,24-pentaazapentacyclo[20.3.1.0^2,^6.0^8,^13.0^14,^19]hexacosa-1(25),2(6),4,8(13),9,11,14,16,18,22(26),23-undecaen-23-amine]: the TPM3-NTRK1-wt/CD74-ROS1-G2032R result was “A (bin A for very high selectivity, ratio>30-fold)”; the TPM3-NTRK1-wt/CD74-ROS1-wt entry is “A (bin A for very high selectivity, ratio>30-fold)”; the TPM3-NTRK1-wt/EML4-ALK-L1196M-G1202R result was “B (bin B for high selectivity, ratio>10-fold)”; the TPM3-NTRK1-wt/EML4-ALK-wt entry was “A (bin A for very high selectivity, ratio>30-fold)”.
`CCn1ncc2c1-c1cnc(N)c(c1)O[C@H](C)c1cc(F)ccc1-n1nncc1C2` [Example 43, (19R)-3-ethyl-16-fluoro-19-methyl-20-oxa-3,4,10,11,12,23-hexaazapentacyclo[19.3.1.0^2,^6.0^8,^12.0^13,^18]pentacosa-1(24),2(6),4,8,10,13,15,17,21(25),22-decaen-22-amine]: the TPM3-NTRK1-wt/CD74-ROS1-G2032R entry is on record as “A (bin A for very high selectivity, ratio>30-fold)”; the TPM3-NTRK1-wt/CD74-ROS1-wt result was “A (bin A for very high selectivity, ratio>30-fold)”; the TPM3-NTRK1-wt/EML4-ALK-L1196M-G1202R result was “C (bin C for moderate selectivity, ratio≥1)”; the TPM3-NTRK1-wt/EML4-ALK-wt entry was “B (bin B for high selectivity, ratio>10-fold)”.
Regarding `CC1Oc2cc(cnc2N)-c2c(cnn2C(F)F)Cn2ccnc2-c2ccc(F)cc21` (stereo not shown) [Example 44, 3-(difluoromethyl)-16-fluoro-19-methyl-20-oxa-3,4,8,11,23-pentaazapentacyclo[19.3.1.0^2,^6.0^8,^12.0^13,^18]pentacosa-1(24),2(6),4,9,11,13,15,17,21(25),22-decaen-22-amine], the TPM3-NTRK1-wt/CD74-ROS1-G2032R result is listed as “A (bin A for very high selectivity, ratio>30-fold)”; the TPM3-NTRK1-wt/CD74-ROS1-wt result is on record as “A (bin A for very high selectivity, ratio>30-fold)”; the TPM3-NTRK1-wt/EML4-ALK-L1196M-G1202R entry is listed as “C (bin C for moderate selectivity, ratio≥1)”; the TPM3-NTRK1-wt/EML4-ALK-wt entry was “A (bin A for very high selectivity, ratio>30-fold)”.
